Laboratory results published in the NIST ThermoML archive (doi:10.1016/j.jct.2018.11.014).
± gives the expanded uncertainty stated by the source.

Assay: molar heat capacity at constant pressure
Conditions: 101.33 kPa, Crystal, Vacuum adiabatic calorimetry

With `O=C(CO)[C@@H](O)[C@H](O)[C@H](O)CO` [D-fructose] the “molar heat capacity at constant pressure” value (116.54 K) was 92.94 ± 0.95 J/K/mol, the “molar heat capacity at constant pressure” value (118 K) was 94.07 ± 0.96 J/K/mol and the “molar heat capacity at constant pressure” value (119.43 K) was 95.21 ± 0.97 J/K/mol. The “molar heat capacity at constant pressure” value (120 K) was 95.65 ± 0.98 J/K/mol, the “molar heat capacity at constant pressure” value (120.86 K) was 96.29 ± 0.99 J/K/mol and the “molar heat capacity at constant pressure” value (122.27 K) was 97.42 ± 1 J/K/mol. The “molar heat capacity at constant pressure” value (123.72 K) was 98.53 ± 1 J/K/mol, the “molar heat capacity at constant pressure” value (125.19 K) was 99.73 ± 1 J/K/mol and the “molar heat capacity at constant pressure” value (126.66 K) was 100.86 ± 1 J/K/mol. For the same molecule, the “molar heat capacity at constant pressure” value (128.15 K) was 101.99 ± 1 J/K/mol, the “molar heat capacity at constant pressure” value (129.65 K) was 103.12 ± 1.1 J/K/mol and the “molar heat capacity at constant pressure” value (130 K) was 103.4 ± 1.1 J/K/mol. The “molar heat capacity at constant pressure” value (131.18 K) was 104.32 ± 1.1 J/K/mol, the “molar heat capacity at constant pressure” value (132.78 K) was 105.56 ± 1.1 J/K/mol and the “molar heat capacity at constant pressure” value (134.41 K) was 106.79 ± 1.1 J/K/mol. For the same molecule, the “molar heat capacity at constant pressure” value (136.01 K) was 107.97 ± 1.1 J/K/mol, the “molar heat capacity at constant pressure” value (137.61 K) was 109.25 ± 1.1 J/K/mol and the “molar heat capacity at constant pressure” value (139.24 K) was 110.5 ± 1.1 J/K/mol. The “molar heat capacity at constant pressure” value (140 K) was 111.05 ± 1.1 J/K/mol, the “molar heat capacity at constant pressure” value (140.9 K) was 111.75 ± 1.1 J/K/mol and the “molar heat capacity at constant pressure” value (142.55 K) was 112.96 ± 1.1 J/K/mol. For the same molecule, the “molar heat capacity at constant pressure” value (144.18 K) was 114.21 ± 1.2 J/K/mol, the “molar heat capacity at constant pressure” value (145.81 K) was 115.47 ± 1.2 J/K/mol and the “molar heat capacity at constant pressure” value (147.46 K) was 116.73 ± 1.2 J/K/mol. For the same molecule, the “molar heat capacity at constant pressure” value (149.19 K) was 117.96 ± 1.2 J/K/mol, the “molar heat capacity at constant pressure” value (150 K) was 118.61 ± 1.2 J/K/mol and the “molar heat capacity at constant pressure” value (150.94 K) was 119.3 ± 1.2 J/K/mol. The “molar heat capacity at constant pressure” value (152.67 K) was 120.61 ± 1.2 J/K/mol, the “molar heat capacity at constant pressure” value (154.39 K) was 121.92 ± 1.2 J/K/mol and the “molar heat capacity at constant pressure” value (156.15 K) was 123.22 ± 1.2 J/K/mol. For the same molecule, the “molar heat capacity at constant pressure” value (157.94 K) was 124.55 ± 1.3 J/K/mol, the “molar heat capacity at constant pressure” value (159.71 K) was 125.9 ± 1.3 J/K/mol and the “molar heat capacity at constant pressure” value (160 K) was 126.11 ± 1.3 J/K/mol. The “molar heat capacity at constant pressure” value (161.48 K) was 127.16 ± 1.3 J/K/mol, the “molar heat capacity at constant pressure” value (163.23 K) was 128.53 ± 1.3 J/K/mol and the “molar heat capacity at constant pressure” value (165.01 K) was 129.85 ± 1.3 J/K/mol. The “molar heat capacity at constant pressure” value (166.83 K) was 131.22 ± 1.3 J/K/mol, the “molar heat capacity at constant pressure” value (168.63 K) was 132.53 ± 1.4 J/K/mol and the “molar heat capacity at constant pressure” value (170 K) was 133.55 ± 1.4 J/K/mol. The “molar heat capacity at constant pressure” value (170.42 K) was 133.87 ± 1.4 J/K/mol, the “molar heat capacity at constant pressure” value (172.26 K) was 135.21 ± 1.4 J/K/mol and the “molar heat capacity at constant pressure” value (174.19 K) was 136.66 ± 1.4 J/K/mol. For the same molecule, the “molar heat capacity at constant pressure” value (176.16 K) was 138.12 ± 1.4 J/K/mol, the “molar heat capacity at constant pressure” value (178.11 K) was 139.54 ± 1.4 J/K/mol and the “molar heat capacity at constant pressure” value (180 K) was 140.95 ± 1.4 J/K/mol. The “molar heat capacity at constant pressure” value (180.05 K) was 140.98 ± 1.4 J/K/mol, the “molar heat capacity at constant pressure” value (181.97 K) was 142.44 ± 1.4 J/K/mol and the “molar heat capacity at constant pressure” value (183.93 K) was 143.86 ± 1.5 J/K/mol. The “molar heat capacity at constant pressure” value (185.92 K) was 145.37 ± 1.5 J/K/mol, the “molar heat capacity at constant pressure” value (187.9 K) was 146.78 ± 1.5 J/K/mol and the “molar heat capacity at constant pressure” value (189.86 K) was 148.24 ± 1.5 J/K/mol. The “molar heat capacity at constant pressure” value (190 K) was 148.33 ± 1.5 J/K/mol, the “molar heat capacity at constant pressure” value (191.82 K) was 149.62 ± 1.5 J/K/mol and the “molar heat capacity at constant pressure” value (193.8 K) was 151.13 ± 1.5 J/K/mol. For the same molecule, the “molar heat capacity at constant pressure” value (195.89 K) was 152.65 ± 1.6 J/K/mol, the “molar heat capacity at constant pressure” value (198.03 K) was 154.23 ± 1.6 J/K/mol and the “molar heat capacity at constant pressure” value (200 K) was 155.71 ± 1.6 J/K/mol. For the same molecule, the “molar heat capacity at constant pressure” value (200.16 K) was 155.79 ± 1.6 J/K/mol, the “molar heat capacity at constant pressure” value (202.27 K) was 157.38 ± 1.6 J/K/mol and the “molar heat capacity at constant pressure” value (204.41 K) was 158.97 ± 1.6 J/K/mol. For the same molecule, the “molar heat capacity at constant pressure” value (206.59 K) was 160.59 ± 1.6 J/K/mol, the “molar heat capacity at constant pressure” value (208.75 K) was 162.27 ± 1.6 J/K/mol and the “molar heat capacity at constant pressure” value (210 K) was 163.12 ± 1.6 J/K/mol. For the same molecule, the “molar heat capacity at constant pressure” value (210.91 K) was 163.79 ± 1.7 J/K/mol, the “molar heat capacity at constant pressure” value (213.05 K) was 165.43 ± 1.7 J/K/mol and the “molar heat capacity at constant pressure” value (215.22 K) was 166.88 ± 1.7 J/K/mol. The “molar heat capacity at constant pressure” value (217.41 K) was 168.61 ± 1.7 J/K/mol, the “molar heat capacity at constant pressure” value (219.6 K) was 170.28 ± 1.7 J/K/mol and the “molar heat capacity at constant pressure” value (220 K) was 170.57 ± 1.7 J/K/mol. The “molar heat capacity at constant pressure” value (221.78 K) was 172.01 ± 1.7 J/K/mol, the “molar heat capacity at constant pressure” value (223.94 K) was 173.59 ± 1.8 J/K/mol and the “molar heat capacity at constant pressure” value (226.14 K) was 175.1 ± 1.8 J/K/mol. For the same molecule, the “molar heat capacity at constant pressure” value (228.44 K) was 176.89 ± 1.8 J/K/mol, the “molar heat capacity at constant pressure” value (230 K) was 178.09 ± 1.8 J/K/mol and the “molar heat capacity at constant pressure” value (230.8 K) was 178.65 ± 1.8 J/K/mol. For the same molecule, the “molar heat capacity at constant pressure” value (233.16 K) was 180.52 ± 1.8 J/K/mol, the “molar heat capacity at constant pressure” value (235.5 K) was 182.33 ± 1.8 J/K/mol and the “molar heat capacity at constant pressure” value (237.87 K) was 184.07 ± 1.9 J/K/mol. For the same molecule, the “molar heat capacity at constant pressure” value (240 K) was 185.67 ± 1.9 J/K/mol, the “molar heat capacity at constant pressure” value (240.27 K) was 185.87 ± 1.9 J/K/mol and the “molar heat capacity at constant pressure” value (242.65 K) was 187.7 ± 1.9 J/K/mol. The “molar heat capacity at constant pressure” value (245.03 K) was 189.43 ± 1.9 J/K/mol, the “molar heat capacity at constant pressure” value (247.39 K) was 191.32 ± 1.9 J/K/mol and the “molar heat capacity at constant pressure” value (249.78 K) was 193.01 ± 1.9 J/K/mol. The “molar heat capacity at constant pressure” value (250 K) was 193.28 ± 1.9 J/K/mol, the “molar heat capacity at constant pressure” value (252.2 K) was 194.95 ± 2 J/K/mol and the “molar heat capacity at constant pressure” value (254.6 K) was 196.74 ± 2 J/K/mol. For the same molecule, the “molar heat capacity at constant pressure” value (257 K) was 198.58 ± 2 J/K/mol, the “molar heat capacity at constant pressure” value (259.38 K) was 200.5 ± 2 J/K/mol and the “molar heat capacity at constant pressure” value (260 K) was 200.91 ± 2 J/K/mol. The “molar heat capacity at constant pressure” value (261.79 K) was 202.31 ± 2 J/K/mol, the “molar heat capacity at constant pressure” value (264.29 K) was 204.15 ± 2.1 J/K/mol and the “molar heat capacity at constant pressure” value (266.82 K) was 206.25 ± 2.1 J/K/mol. The “molar heat capacity at constant pressure” value (269.35 K) was 208.09 ± 2.1 J/K/mol, the “molar heat capacity at constant pressure” value (270 K) was 208.52 ± 2.1 J/K/mol and the “molar heat capacity at constant pressure” value (271.87 K) was 210.03 ± 2.1 J/K/mol. The “molar heat capacity at constant pressure” value (274.41 K) was 211.71 ± 2.1 J/K/mol, the “molar heat capacity at constant pressure” value (276.98 K) was 213.84 ± 2.2 J/K/mol and the “molar heat capacity at constant pressure” value (279.54 K) was 215.75 ± 2.2 J/K/mol. For the same molecule, the “molar heat capacity at constant pressure” value (280 K) was 216.17 ± 2.2 J/K/mol, the “molar heat capacity at constant pressure” value (282.08 K) was 217.72 ± 2.2 J/K/mol and the “molar heat capacity at constant pressure” value (284.61 K) was 219.77 ± 2.2 J/K/mol. For the same molecule, the “molar heat capacity at constant pressure” value (287.17 K) was 221.78 ± 2.2 J/K/mol, the “molar heat capacity at constant pressure” value (289.76 K) was 223.86 ± 2.3 J/K/mol and the “molar heat capacity at constant pressure” value (290 K) was 224.03 ± 2.3 J/K/mol. The “molar heat capacity at constant pressure” value (292.33 K) was 225.93 ± 2.3 J/K/mol, the “molar heat capacity at constant pressure” value (294.92 K) was 227.98 ± 2.3 J/K/mol and the “molar heat capacity at constant pressure” value (297.52 K) was 230.08 ± 2.3 J/K/mol. The “molar heat capacity at constant pressure” value (298.15 K) was 230.55 ± 2.3 J/K/mol, the “molar heat capacity at constant pressure” value (300 K) was 232.04 ± 2.3 J/K/mol and the “molar heat capacity at constant pressure” value (300.15 K) was 232.18 ± 2.3 J/K/mol. For the same molecule, the “molar heat capacity at constant pressure” value (302.81 K) was 234.38 ± 2.4 J/K/mol, the “molar heat capacity at constant pressure” value (305.45 K) was 236.46 ± 2.4 J/K/mol and the “molar heat capacity at constant pressure” value (308.08 K) was 238.4 ± 2.4 J/K/mol. For the same molecule, the “molar heat capacity at constant pressure” value (310 K) was 240.14 ± 2.4 J/K/mol, the “molar heat capacity at constant pressure” value (310.7 K) was 240.73 ± 2.4 J/K/mol and the “molar heat capacity at constant pressure” value (313.34 K) was 242.98 ± 2.5 J/K/mol. For the same molecule, the “molar heat capacity at constant pressure” value (316 K) was 244.99 ± 2.5 J/K/mol, the “molar heat capacity at constant pressure” value (318.66 K) was 247.19 ± 2.5 J/K/mol and the “molar heat capacity at constant pressure” value (320 K) was 248.27 ± 2.5 J/K/mol. For the same molecule, the “molar heat capacity at constant pressure” value (321.3 K) was 249.35 ± 2.5 J/K/mol, the “molar heat capacity at constant pressure” value (323.93 K) was 251.32 ± 2.5 J/K/mol and the “molar heat capacity at constant pressure” value (326.58 K) was 253.53 ± 2.6 J/K/mol. For the same molecule, the “molar heat capacity at constant pressure” value (329.26 K) was 255.9 ± 2.6 J/K/mol and the “molar heat capacity at constant pressure” value (330 K) was 256.36 ± 2.6 J/K/mol.
